For eight compounds, MIC results are on record in patent publication USRE40086E1, “Method for treating bacterial infection with novel 7-substituted-9-substituted amino 6-demethyl-6-deoxytetracyclines” (Wyeth Holdings Corporation, priority 1991, dated 2008).

What all share (assay): MIC, agar dilution
Holding throughout (format): cell-based
For orientation: In agar dilution, organisms are placed on agar that contains the substance at set levels.

For assay [1], the system named is S. aureus UBMS 88-5 (tetM). To be noted: S. aureus UBMS 88-5 (tetM).
The subject of assay [2] is S. aureus UBMS 88-4 (Sensitive). The settings on record: S. aureus UBMS 88-4 (Sensitive).
Assay [3] deals with S. aureus UBMS 90-1 (tetM). The settings on record: S. aureus UBMS 90-1 (tetM).
Assay [4] relates to S. aureus UBMS 90-2 (tetM). To be noted: S. aureus UBMS 90-2 (tetM).
Assay [5] concerns S. aureus UBMS 90-3 (Sensitive). To be noted: S. aureus UBMS 90-3 (Sensitive).
Assay [6] concerns S. aureus UBMS 88-7 (tetK). To be noted: S. aureus UBMS 88-7 (tetK).
The test system of assay [7] is S. aureus IVES 2943 (meth. resistant). The settings on record: S. aureus IVES 2943 (meth. resistant).
In assay [8] the test system is S. aureus IVES 1983 (meth. resistant). The settings on record: S. aureus IVES 1983 (meth. resistant).
Assay [9] concerns S. aureus ATCC 29213 (Sensitive). To be noted: S. aureus ATCC 29213 (Sensitive).
The subject of assay [10] is S. aureus Smith (Sensitive). The settings on record: S. aureus Smith (Sensitive).
Another assay has as its system E. faecalis ATCC 29212. To be noted: E. faecalis ATCC 29212.
Another assay has as its system E. coli UBMS 88-1 (tetB). The settings on record: E. coli UBMS 88-1 (tetB).
Assay [11] relates to E. coli UBMS 88-2 (Sensitive). To be noted: E. coli UBMS 88-2 (Sensitive).
The test system of assay [12] is E. coli UBMS 89-2 (Sensitive). The settings on record: E. coli UBMS 89-2 (Sensitive).
Another assay relates to E. coli ATCC 25922. The settings on record: E. coli ATCC 25922.
For assay [13], the system named is S. haemolyticus AVAH 88-3. The settings on record: S. haemolyticus AVAH 88-3.
A further assay concerns E. faecalis 12201. To be noted: E. faecalis 12201.
Another assay deals with E. coli UBMS 89-1 (tetM). The settings on record: E. coli UBMS 89-1 (tetM).

In brackets after ≈: the same amount, converted by molar mass. Some results are limits rather than exact numbers.

As usually defined, the MIC is the lowest concentration that inhibits growth of the organism. Read a high MIC as weaker potency. For the compound `CN(C)c1cc(NS(C)(=O)=O)c(O)c2c1CC1CC3C(N(C)C)C(O)=C(C(N)=O)C(=O)C3(O)C(O)=C1C2=O` (centres unmarked) [FF, 7-(Dimethylamino)-9-[(methylsulfonyl)amino]-6-demethyl-6-deoxytetracycline], the MIC stood at 0.25 µg/mL (≈ 0.454 µM) in assay [1]; 0.25 µg/mL (≈ 0.454 µM) in assay [2]; 0.25 µg/mL (≈ 0.454 µM) in assay [3]; 0.06 µg/mL (≈ 0.109 µM) in assay [4]; 0.12 µg/mL (≈ 0.218 µM) in assay [5]; 8 µg/mL (≈ 14.5 µM) in assay [6]. Further, the MIC is 16 µg/mL (≈ 29.1 µM) in assay [7]; 16 µg/mL (≈ 29.1 µM) in assay [8]; 0.03 µg/mL (≈ 0.0545 µM) in assay [9]; 0.12 µg/mL (≈ 0.218 µM) in [10]; 0.06 µg/mL (≈ 0.109 µM) in the assay with E. faecalis ATCC 29212; 8 µg/mL (≈ 14.5 µM) in the assay on E. coli UBMS 88-1 (tetB). In addition, the MIC (in assay [11]; in [12]; against E. coli ATCC 25922) was 2 µg/mL (≈ 3.63 µM) in each case.

On to `COC(=O)Nc1cc(N(C)C)c2c(c1O)C(=O)C1=C(O)[C@]3(O)C(=O)C(C(N)=O)=C(O)[C@@H](N(C)C)C3CC1C2` (stereo partly drawn) [HH, [7S-(7α,10aα)]-[9-(Aminocarbonyl)-4,7-bis(dimethylamino)-5,5a,6,6a,7,10,10a,12-octahydro-1,8,10a,11-tetrahydroxy-10,12-dioxo-2-naphthacenyl]carbamic acid methyl ester], for which the MIC was found to be 0.25 µg/mL (≈ 0.471 µM) in [1]; 0.03 µg/mL (≈ 0.0565 µM) in assay [2]; 1 µg/mL (≈ 1.88 µM) in [3]; 0.25 µg/mL (≈ 0.471 µM) in assay [4]; 0.03 µg/mL (≈ 0.0565 µM) in [5]; 0.5 µg/mL (≈ 0.942 µM) in assay [6]. Also, the MIC in [7] was 2 µg/mL (≈ 3.77 µM); in [8], 2 µg/mL (≈ 3.77 µM); in assay [9], “≦0.015 μg/ml”; in assay [10], 0.03 µg/mL (≈ 0.0565 µM); in assay [13] it was 0.25 µg/mL (≈ 0.471 µM); with E. faecalis 12201, 2 µg/mL (≈ 3.77 µM). Moreover, the minimum inhibitory concentration (MIC) was found to be 0.25 µg/mL (≈ 0.471 µM) against E. faecalis ATCC 29212; 16 µg/mL (≈ 30.2 µM) in the assay with E. coli UBMS 88-1 (tetB); 4 µg/mL (≈ 7.54 µM) against E. coli UBMS 89-1 (tetM); 4 µg/mL (≈ 7.54 µM) in assay [12]; 2 µg/mL (≈ 3.77 µM) in the assay on E. coli ATCC 25922.

Turning to `CN(C)c1cc(NS(=O)(=O)c2cccs2)c(O)c2c1CC1CC3C(N(C)C)C(O)=C(C(N)=O)C(=O)C3(O)C(O)=C1C2=O` (centres unmarked) [DD, 7-(Dimethylamino)-9-[(2-thienylsulfonyl)amino)-6-demethyl-6-deoxytetracycline], the MIC in assay [1] was 0.5 µg/mL (≈ 0.808 µM); in assay [2], 0.5 µg/mL (≈ 0.808 µM); in [3], 1 µg/mL (≈ 1.62 µM); in assay [4] it was 0.25 µg/mL (≈ 0.404 µM); in assay [5], 0.25 µg/mL (≈ 0.404 µM); in assay [6] it was 2 µg/mL (≈ 3.23 µM). Further, the MIC was found to be 4 µg/mL (≈ 6.47 µM) in [7]; 4 µg/mL (≈ 6.47 µM) in [8]; 0.03 µg/mL (≈ 0.0485 µM) in assay [9]; 0.03 µg/mL (≈ 0.0485 µM) in [10]; 2 µg/mL (≈ 3.23 µM) in [13]; 0.25 µg/mL (≈ 0.404 µM) in the assay with E. faecalis ATCC 29212. Moreover, the MIC stood at 32 µg/mL (≈ 51.7 µM) against E. coli UBMS 88-1 (tetB), 8 µg/mL (≈ 12.9 µM) in [11], 16 µg/mL (≈ 25.9 µM) in assay [12] and 4 µg/mL (≈ 6.47 µM) against E. coli ATCC 25922.

Regarding `CN(C)c1cc(NS(=O)(=O)c2ccccc2)c(O)c2c1CC1CC3C(N(C)C)C(O)=C(C(N)=O)C(=O)C3(O)C(O)=C1C2=O` (centres unmarked) [CC, 7-(Dimethylamino)-9-[(phenylsulfonyl)amino]-6-demethyl-6-deoxytetracycline], the MIC in [1] is 4 µg/mL (≈ 6.53 µM); in assay [2], 0.03 µg/mL (≈ 0.049 µM); in assay [3], 4 µg/mL (≈ 6.53 µM); in [4], 0.06 µg/mL (≈ 0.0979 µM); in [5], 4 µg/mL (≈ 6.53 µM); in [6], 4 µg/mL (≈ 6.53 µM). Moreover, the MIC in assay [7] is 4 µg/mL (≈ 6.53 µM); in assay [8], 4 µg/mL (≈ 6.53 µM); in assay [9] it was “≦0.015 μg/ml”; in [10], 4 µg/mL (≈ 6.53 µM); in assay [13], 4 µg/mL (≈ 6.53 µM); with E. faecalis ATCC 29212, 0.06 µg/mL (≈ 0.0979 µM). Moreover, the MIC with E. coli UBMS 88-1 (tetB) turned out to be 16 µg/mL (≈ 26.1 µM); in assay [11], 8 µg/mL (≈ 13.1 µM); in assay [12] it was 16 µg/mL (≈ 26.1 µM); in the assay on E. coli ATCC 25922, 2 µg/mL (≈ 3.26 µM).

For `CN(C)c1cc(NS(=O)(=O)c2ccc(Cl)cc2)c(O)c2c1CC1CC3C(N(C)C)C(O)=C(C(N)=O)C(=O)C3(O)C(O)=C1C2=O` (centres unmarked) [EE, 9-[[(4-Chlorophenyl)sulfonyl]amino)-7-(dimethylamino)-6-demethyl-6-deoxytetracycline], the MIC came to 0.12 µg/mL (≈ 0.185 µM) in assay [1]; 0.12 µg/mL (≈ 0.185 µM) in assay [2]; 0.25 µg/mL (≈ 0.386 µM) in assay [3]; 0.12 µg/mL (≈ 0.185 µM) in assay [4]; 0.12 µg/mL (≈ 0.185 µM) in assay [5]; 1 µg/mL (≈ 1.55 µM) in assay [6]. Also, the MIC in [7] was 0.5 µg/mL (≈ 0.773 µM); in [8], 1 µg/mL (≈ 1.55 µM); in assay [9], 0.03 µg/mL (≈ 0.0464 µM); in [10] it was 0.12 µg/mL (≈ 0.185 µM); in the assay on E. faecalis ATCC 29212, 0.06 µg/mL (≈ 0.0927 µM); against E. coli UBMS 88-1 (tetB), more than 32 µg/mL. Further, the MIC (in assay [11]; in assay [12]; in the assay with E. coli ATCC 25922) was more than 32 µg/mL throughout.

As to `CN(C)CC(=O)Nc1cc(N(C)C)c2c(c1O)C(=O)C1=C(O)C3(O)C(=O)C(C(N)=O)=C(O)C(N(C)C)C3CC1C2.O=S(=O)(O)O` (centres unmarked) [II, 7-(Dimethylamino)-9-[[(dimethylamino)acetyl]amino]-6-demethyl-6-deoxytetracycline sulfate], the MIC is 0.12 µg/mL in assay [1]; 0.06 µg/mL in [2]; 0.25 µg/mL in assay [3]; 0.06 µg/mL in [4]; 0.06 µg/mL in assay [5]; 0.06 µg/mL in [6]. Further, the MIC in assay [7] amounted to 1 µg/mL; in assay [8] it was 1 µg/mL; in assay [9], 0.03 µg/mL; in [10] it was 0.12 µg/mL; in assay [13], 0.25 µg/mL; against E. faecalis 12201, 0.12 µg/mL. In addition, the MIC with E. faecalis ATCC 29212 was 0.03 µg/mL; with E. coli UBMS 88-1 (tetB), 0.25 µg/mL; in the assay with E. coli UBMS 89-1 (tetM), 0.12 µg/mL; in assay [12], 0.25 µg/mL; in the assay on E. coli ATCC 25922, 0.12 µg/mL.

Regarding `CC(=O)Nc1cc(N(C)C)c2c(c1O)C(=O)C1=C(O)[C@]3(O)C(=O)C(C(N)=O)=C(O)[C@@H](N(C)C)[C@@H]3C[C@@H]1C2` [B, 9-(Acetylamino)-7-(dimethylamino)-6-demethyl-6-deoxytetracycline], the MIC in assay [1] was 0.12 µg/mL (≈ 0.233 µM); in assay [2] it was “≦0.06 μg/ml”; in assay [6], 4 µg/mL (≈ 7.77 µM); in [7] it was 64 µg/mL (≈ 124 µM); in assay [9] it was 0.12 µg/mL (≈ 0.233 µM); in [10], 0.12 µg/mL (≈ 0.233 µM). In addition, the MIC with E. faecalis 12201 was 0.5 µg/mL (≈ 0.972 µM); against E. faecalis ATCC 29212, 0.12 µg/mL (≈ 0.233 µM); against E. coli UBMS 88-1 (tetB), more than 128 µg/mL; in assay [11], 2 µg/mL (≈ 3.89 µM); against E. coli ATCC 25922 it was 2 µg/mL (≈ 3.89 µM).

Take `CN(C)c1cc(NS(=O)(=O)c2cccc([N+](=O)[O-])c2)c(O)c2c1CC1CC3C(N(C)C)C(O)=C(C(N)=O)C(=O)C3(O)C(O)=C1C2=O` (centres unmarked) [BB]: the MIC in assay [2] was 1 µg/mL (≈ 1.52 µM); in [3], 2 µg/mL (≈ 3.04 µM); in assay [4] it was 0.5 µg/mL (≈ 0.76 µM); in [5], 0.12 µg/mL (≈ 0.182 µM); in assay [6], 4 µg/mL (≈ 6.08 µM); in assay [7], 4 µg/mL (≈ 6.08 µM). The MIC is 8 µg/mL (≈ 12.2 µM) in assay [8]; 0.06 µg/mL (≈ 0.0912 µM) in [9]; 0.25 µg/mL (≈ 0.38 µM) in assay [10]; 4 µg/mL (≈ 6.08 µM) in assay [13]; 0.12 µg/mL (≈ 0.182 µM) with E. faecalis ATCC 29212; more than 32 µg/mL with E. coli UBMS 88-1 (tetB). Besides, the MIC was found to be 4 µg/mL (≈ 6.08 µM) in [11], 16 µg/mL (≈ 24.3 µM) in assay [12] and 2 µg/mL (≈ 3.04 µM) with E. coli ATCC 25922.
